Source: publication PMC11945201, “Enhancing the Oral Bioavailability of Glutathione Using Innovative Analogue Approaches” (Pharmaceutics, 2025)

Tests used:
Fibroblast cells = experiment: UV rescue of UVA-irradiated fibroblast cells (MTT); format: cell-based; settings: for cell viability versus untreated groups (in words): UV rescue; for % Cell Viability (with UV): UVA 1 h, then peptide 0.0325 mmolL^−1, 24 h
Procedure: (§1) Fibroblast cells were seeded into 96-well plates at a density of 10,000 cells per well determined by cell counting. Cells were allowed to settle and attach for 24 h before the addition of peptides. The supernatant in each well was discarded, and the attached cells were washed using serum-free DMEM twice. One group of cells was exposed to UVA under a UV lamp for 1 h. A second group of cells was not exposed to UV irradiation. The supernatant was removed from each well of both groups and replaced with peptide (100 μL, 0.0325 mmolL^−1), which was then dissolved in Fluorobite^TM DMEM. Each plate, including 2 wells of both groups was also incubated with serum-free DMEM (positive control) and 2% Triton-X (negative control) for 24 h. The supernatant in each well of both groups was then discarded and the cells washed using PBS. MTT (100 μL, 6 mmolL^−1) that was dissolved in HBSS was then added to each well and incubated for 2 h for MTT conversion into formazan. The supernatant was then discarded, and the cells were washed using PBS to remove any residual MTT and formazan that were not attached to the cellular mitochondria. Formazan was dissolved in DMSO (50 μL), and the absorbance was measured on a microplate reader at a wavelength of 570 nm.

[1] = tested on: glutathione S-transferase (GST); experiment: Glutathione S-transferase assay (CDNB conjugation, absorbance 340 nm); format: biochemical, equine; settings: for GST Activity > 50%: yes/no, compared to GSH, more than 50% considered retaining GST activity; for activity/efficacy with GST enzyme (in words): qualitative analysis
Procedure: The degree of conjugation of GSH or novel compounds to a substrate catalysed by GST can be monitored […] by conjugation with the substrate 1-chloro-2,4-dinotrobenzene (CDNB) to a thiol group. Successful conjugation results in the formation of a S-DNB conjugate, which strongly absorbs at 340 nm.
A stock solution of GSH and novel compounds (0.0315 mmolL^−1) were prepared. GSH or novel compounds (26 µL) were added to a mixture of pH = 7.4 DPBS (170 µL), CDNB (2 µL, 100 mmolL^−1), and GST enzyme (2 µL, 25 UmL^−1) to initiate the reaction. The rate of increase in absorbance at 340 nm was monitored every minute over a 10 min period. The rate of increase in absorbance at 340 nm was calculated by the following equation (Equation (1)), where ΔA340 is the change in absorption at 340 nm per minute:(1) ΔA340=A340(final)–A340(initial)/t.
The rate of increase in absorption at 340 nm was correlated to the specific activity of GST using the following equation (Equation (2)):(2) ΔA340×V/εmM ×Venz=Specific activity of GST, where the extinction coefficient εmM for a 96-well plate of a path length of 0.5 cm is 5.3 mmolL^−1cm^−1; Venz is the volume of the GST enzyme sample used (2 µL); and V is the total volume used ([…]). […] A GST activity more than 50% was considered as retaining GST activity.

[2] = tested on: γ-glutamyl transferase (GGT); format: in vitro ADME, equine; settings: for % Degradation by GGT: horse, 100 μgmL^−1, pH 9
Procedure: Each compound and GSH (100 μgmL^−1, 0.0315 molL^−1) was added to each reaction vessel containing phosphate buffer solution (800 μL, pH 9.0). The reaction vessels were incubated at 37 °C with shaking for the entire duration of the experiment. Reaction was initiated by the addition of GGT enzyme solution (100 μL, 10 UmL^−1). […] The degradation rate of the novel compounds analysed by HPLC were compared with that of GSH. […] A GGT degradation less than 50% was considered resistance to GTT activity.

[3] = tested on: glutathione reductase (GR) and glutathione peroxidase (GPx); experiment: Glutathione reductase and glutathione peroxidase coupled assay (NADPH, 340 nm); format: biochemical, yeast (GR), bovine (GPx); settings: for GT/GPx Activity > 50%: yes/no, more than 50% considered retaining GR and GPx activity; for activity with GPx and GR enzymes (in words): qualitative analysis
Procedure: The activity of GR can be measured by monitoring the rate of decrease in absorbance of its substrate, NADPH, which absorbs light of 340 nm in the presence of a second substrate, i.e., oxidised GSH. […] In the presence of peroxides, reduced GSH can be oxidised by the enzyme GPx while reducing the peroxide. […] The NADPH solution (10 μL, 5 mmolL^−1), GPx enzyme solution (10 μL, 0.25 UmL^−1), and GR enzyme solution (10 μL, 10 UmL^−1) were also added to the reaction mixture. The reaction was initiated by the addition of tBu-OOH (2 μL, 30 mmolL^−1), and the decrease in absorbance at 340 nm was recorded by a microplate reader every 10 secs for one minute. […] A GR and GPx activity more than 50% was considered as retaining GR and GPx activity.

[4] = tested on: Caco-2, Fibroblast, and HT29-MTX-E12 cells; experiment: Cytotoxicity by MTT cell viability; format: cell-based; settings: 24 h incubation, cell line not split in table (Caco-2, Fibroblast, HT29-MTX-E12), highest usable concentration 3.25 mmolL^−1
Procedure: All cell culture studies were conducted in aseptic conditions. Incubation was maintained at an atmosphere of 37.0 °C, 5% CO2, and 95% relative humidity. The caco-2 cells were grown in complete Dulbecco’s modified Eagle’s medium (DMEM), which was prepared by adding 10% foetal bovine serum (FBS), 1% penicillin-streptomycin (P-S), and 1% non-essential amino acids (NEAA) to sterile DMEM. Cells were cultured in T-25 and T-75 tissue culture flasks, and the medium was exchanged every 3 days until 90% confluence was reached. Cells were detached and subcultured with 0.25% Trypsin-EDTA. The suspended cell concentration was determined by cell counting.
Cytotoxicity was measured by measuring cell viability using MTT. Then, 90% confluent cells were detached by 0.25% trypsin-EDTA, which were then counted and seeded into sterile 96-well plates. Caco-2 cells were seeded into 96-well plates at a density of 100,000 cells per well and incubated for 24 h prior to the experiment. Fibroblast cells were seeded into 96-well plates at a density of 10,000 cells per well and incubated for 24 h prior to the experiment. HT-29 cells were seeded into 96-well plates at a density of 10,000 cells per well and incubated for 24 h prior to the experiment. The supernatant in each well were discarded and the attached cells were washed using serum-free Fluorobite^TM DMEM twice to remove any phenol red. The peptide, at concentrations of 10 mgmL^−1, 1 mgmL^−1, 0.1 mgmL^−1, 0.01 mgmL^−1, 0.001 mgmL^−1, and 0.0001 mgmL^−1 were dissolved in serum-free Fluorobite^TM DMEM. The total volume of sample in each well used was 100 μL. The cells were incubated with the peptide for 24 h. Cells were also incubated with serum-free DMEM (positive control) and 2% Triton-X (negative control) for 24 h. The supernatant in each well was then discarded and washed using serum-free Fluorobite^TM DMEM. MTT (100 μL, 1.2 mmolL^−1) dissolved in Fluorobite^TM DMEM was then added to each well and incubated for 2 h for MTT conversion into formazan. The supernatant was then discarded, and the cells were washed using Fluorobite^TM DMEM to remove any residual MTT and formazan that were not attached to cellular mitochondria. Formazan was dissolved in dimethyl sulfoxide (DMSO) (50 μL), and the absorbance was measured on a microplate reader at a wavelength of 570 nm. Cell viability was expressed as a percentage of the positive control and calculated as follows (where Aexp is the absorbance at 570 nm of the experimental group, Aneg is the absorbance at 570 nm of the negative control, and Acon is the cell viability of the positive control): Cell viability = (Aexp − Aneg)/(Acon − Aneg).

[5] = UV rescue of UVA-irradiated fibroblast cells (MTT); format: cell-based; settings: peptide 0.0325 mmolL^−1, 24 h, no UV, mean ± SD, n = 6, read-out: % Cell Viability (no UV)
Procedure: as §1

SMILES | cell viability versus untreated groups (in words) (Fibroblast cells) | % Cell Viability (with UV) (Fibroblast cells; mean ± SD, n = 6) | % Cell Viability (no UV) (Fibroblast cells; peptide 0.0325 mmolL^−1, 24 h, no UV, mean ± SD, n = 6) | GST Activity > 50% [1] | % Degradation by GGT [2] | GT/GPx Activity > 50% [3] | IC50 [4] | viability at 24 h, 0.0325 mmolL^−1 [5] | activity/efficacy with GST enzyme (in words) [1] | GGT degradation compared to GSH (in words) [2] | activity with GPx and GR enzymes (in words) [3] | IC50 ([4]; Homo sapiens)
N[C@@H](CCC(=O)N[C@@H](CS)C(=O)NCC(=O)O)C(=O)O [Compound 1.61] | significantly higher cell viability than the untreated groups | 69.0 ± 0.6% | 74.3 ± 2.0% | ✔ (✔: yes) | 100% | ✔ (✔: yes) | > 3.25 mM | – | – | – | – | –
N[C@@H](CCC(=O)N[C@H](CS)C(=O)NCC(=O)O)C(=O)O [Compound 1.62] | significantly higher cell viability than the untreated groups | 70.8 ± 5.7% | – | X (X: no) | 82.3% | X (X: no) | – | 112 ± 5.5% | lost detoxification efficacy | less than half the rate of GGT degradation | loss of activity | > 3.25 mM
N[C@H](CCC(=O)N[C@@H](CS)C(=O)NCC(=O)O)C(=O)O [Compound 1.63] | significantly higher cell viability than the untreated groups | 101.1 ± 5.2% | – | X (X: no) | 72.7% | ✔ (✔: yes) | – | 137 ± 16.1% | lost detoxification efficacy | less than half the rate of GGT degradation | retained activity | > 3.25 mM
N[C@H](CCC(=O)N[C@H](CS)C(=O)NCC(=O)O)C(=O)O [Compound 1.64] | significantly higher cell viability than the untreated groups | 98.5 ± 7.1% | – | ✔ (✔: yes) | 60.2% | X (X: no) | – | 128 ± 7.9% | retained the detoxification effectiveness | less than half the rate of GGT degradation | loss of activity | > 3.25 mM
CN(CC(=O)O)C(=O)[C@H](CS)NC(=O)CC[C@H](N)C(=O)O [Compound 1.65] | significantly higher cell viability than the untreated groups | 69.3 ± 26.6% | – | X (X: no) | 122.2% | ✔ (✔: yes) | – | 58.8% | loss of activity | did not show a decrease in degradation | retention of activity | 0.984 mM
CN[C@@H](CCC(=O)N[C@@H](CS)C(=O)NCC(=O)O)C(=O)O [Compound 1.71] | significantly higher cell viability than the untreated groups | 97.0 ± 5.5% | – | X (X: no) | 11.7% | ✔ (✔: yes) | – | 79.5 ± 10.2% | loss of activity | – | retention of activity | –
